{"source": "patent US20090170801A1", "about": "(Beijing Century Biocom Pharmaceutical Technology Co. Ltd., priority 2006, published 2009)", "key": {"decapitated mice": {"test_system": "decapitated mice", "assay": "Breathing time, breathing frequency, brain index and brain water content in decapitated mice", "assay_type": "in vivo, ICR mice", "conditions": "2 mg/kg tail i.v.", "method": "The model group was administrated normal salt. At 15 minutes after administration, the mice were decapitated by a pair of scissors. The mouth breathing time, breathing frequency and brain water content were recorded and compared with other groups. Whole brains were collected. After the wet weight was obtained, they were dried in an oven at 100° C. for 24 hours. The average value was taken to calculate brain water content: brain water content (%)=[…]. Brain index: brain index=brain wet weight (g)/body weight (g)×100%."}, "brain of ischemic mice": {"test_system": "brain of ischemic mice", "assay": "Cerebral ischemia in mice with common carotid artery ligation and reperfusion (brain LDH and SOD)", "assay_type": "in vivo", "conditions": "2 mg/kg tail i.v.", "method": "Grouped mice were respectively administered test substance, nimodipine or normal salt by tail intravenous injection. After 15 minutes, the mice were anesthetized with 3.5% chloral hydrate, fixed in the back. The right and left common carotid artery and vagus nerve were exposed, and 4-0 suture was inserted under the bilateral carotid artery. The suture was tightened to block blood flow for 5 minutes. Then the line was loosened to restore blood flow for 10 minutes. The operation was repeated three times, and an ischemia-reperfusion model in mice was established. After the last reperfusion, the mice were decapitated and brain collected. In the control group, only the bilateral carotid arteries were exposed, without a suture being inserted."}}, "data": [{"compound": "COCCOC(=O)C1=C(C)NC(C)=C(C(=O)OC(C)C)C1c1cccc([N+](=O)[O-])c1", "note": "(stereo not drawn) [Nimodipine, nimodipine]", "values": [{"measurement": "Brain water content", "setting": "decapitated mice", "result": "75.8 ± 1.0", "unit": "%"}, {"measurement": "LDH", "setting": "brain of ischemic mice", "result": "11.3 ± 6.6", "unit": "U/mg"}, {"measurement": "SOD", "setting": "brain of ischemic mice", "result": "144.77 ± 21.61", "unit": "U/mg"}]}]}
